Data as given in patent US11358933B2, “Compounds and methods for inhibiting CYP26 enzymes” (Queen's University at Kingston, priority 2017, dated 2022).

Legend:
[1] = system: Cyp26a1-luc construct in MCF-7 cells; assay: Retinoid activity assay, Cyp26a1-luc reporter in MCF-7 cells; assay type: cell-based; conditions: for Rel. Luciferase Activity (mean): 24 hours, firefly relative to Renilla luciferase
Description: This retinoid activity assay measures the ability of test compounds to induce expression of a transiently transfected RA sensitive reporter construct. In this assay, MCF-7 cells are transfected with a construct comprising an upstream promoter of the CYP26A1 gene containing 2 RA response elements driving expression of firefly luciferase (pCYP26A1-luc). Since CYP26A1 is highly inducible by RA in these cells, this construct serves as a sensitive reporter of retinod-like transcriptional activity.
MCF-7 cells were maintained in a RPMI-1640 medium containing 10% FBS. Exponentially growing cells were harvested by incubation in trypsin. Cells were then collected and plated in 24-well plates at 50,000 cells/well. Once cells reached 80-90% confluence (e.g., the next day), cells were transfected with two plasmids. The first plasmid was CYP26A1-luc construct (375 ng). The second plasmid was a control plasmid comprising the Renilla luciferase gene driven by constitutive thymidine kinase promoter (pRL-tk) (25 ng). Transfection was performed using FuGene 6 transfection reagent (Promega) with a 1:3 ratio of DNA:FuGene. 24 hours after transfection, cells were treated with test compounds diluted in DMSO in triplicate at 0.1, 1 and 10 μM final concentrations. As a positive control for reporter activation, cells were also treated with RA diluted in DMSO at the same concentrations listed above. DMSO treatment alone served as a negative control. After 24 hours of treatment, cells were harvested in passive lysis buffer (Promega) and luciferase activity in cell lysates were read using a luminometer. Data are expressed as the activity of firefly luciferase relative to Renilla luciferase (see Tables 3-5). For CYP26A1 inhibitor compounds, no activation of the reporter was detected, while the related retinoid-like compound induces luciferase expression.

[2] = system: primary human bone marrow stromal cells; assay: RA metabolism by primary human bone marrow stromal cells; assay type: cell-based; conditions: pre-treated with DMSO or 1 μM RA 24 hours; 1 μM compound (FIG. 5)
Experimental: These experiments are to assess the ability of primary cells, or cell lines to metabolize RA, and to determine the effect of inhibition of CYP26A1 or CYP26B1 on this ability. For these experiments, cells are plated into 48-well plates and treated with a radiolabeled (^3H) RA. The extent of conversion of this labeled RA to water soluble metabolites is determined as above for in the cell-based inhibitor assay. Primary human bone marrow stromal cells (available from Lonza) were cultured in MyeloCult (available from Stem Cell Technologies, Vancouver, Canada). Mouse OP9 bone marrow stromal cells and MC3T3 pre-osteoblasts were cultured as above. Cells are plated in the appropriate culture medium and allowed to form a monolayer. Cells are then pre-treated with either DMSO (vehicle control) or RA (1 μM) for 24 hours to induce CYP26 expression. Vehicle, and RA induced cells are then exposed to ^3H-RA in the presence or absence of test CYP26 inhibitor to examine the effects on RA metabolism. Cells are incubated for 3 hours with labeled RA, and metabolites extracted and analyzed as above.

MV4-11 cells = assay: Leukemia cell differentiation by FACS (CD11b+), MV4-11 cells with or without stroma; assay type: cell-based, human; conditions: RA plus compound, in the presence of stroma
Experimental: Many human non-APL AML cell lines are sensitive to RA-induced differentiation. However, co-culture of leukemic cells with bone marrow stromal cells can block this effect of RA. This assay tests the ability of CYP26 inhibitor compounds to overcome the protective effect that stromal cells have on leukemic cell differentiation. For these experiments, OP9 mouse bone marrow stromal cells are grown MEM-α containing 20% FBS, in 24 well plates until a cell monolayer is formed. OP9 cells are then irradiated (15Gy) using a GammaCell 20 cesium-137 source (located at Queen's University) in order to induce growth arrest. Leukemic cells are then added to the irradiated monolayers, or control wells without OP9 cells. AML cell lines (150,000 cells) are then plated onto OP9 monolayers in their appropriated growth medium; THP-1 RPMI-1640 medium containing 10% FBS; MDSL, RPMI-1640 medium containing 10% FBS and 10 ng/ml recombinant human IL-3; Kasumi-1, RPMI-1640 containing 20% FBS; MV4-11, IMDM containing 10% FBS. […] Stained cells are then sorted by FACS in a BD FACS Aria 3 flow cytometer (Queen's University) using FACS Diva software, to assess percentage of cells that are CD11b^+, the relative expression levels of CD11b (by median fluorescence intensity—MFI), or percentage of CD34^+CD38^− leukemic stem cells (LSCs). […]

## CC(C)(C)c1cccc(-c2cc3cc(/C=C/C(=O)O)ccc3[nH]2)c1 [Compound 026]
[1]
  Agonist activity in luciferase reporter transactivation experiment: did not show agonist activity
[1]; 0.1 μM
  Rel. Luciferase Activity (mean): .0522
[1]; 1 μM
  Rel. Luciferase Activity (mean): .0472
[1]; 10 μM
  Rel. Luciferase Activity (mean): .0678
[2]
  RA metabolism, basal and RA-induced: efficiently blocked both basal and RA-induced RA metabolism
MV4-11 cells
  RA-induced differentiation (CD11b+ cells): rescued RA-induced differentiation in the presence of stroma
